Reference: PubChem BioAssay (NCI)
Values joined by “and” are separate entries in the source; they are usually repeats but may differ in a detail not shown here. Equal entries are not always repeated.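 Growth conditions: 96-well plates. Treatment: test compound, 48 hours, 5 concentrations. Analysis: linear interpolation between bracketing concentrations; unreached endpoints set to highest concentration. The concentration for 50% growth inhibition is given as GI50. The concentration for full growth arrest is given as TGI.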

How the values were obtained:
Experiment in all cases: inhibition of tumour cell growth, NCI panel, 48 h
[1] = test system: MDA-MB-231 breast
[2] = test system: SW-620 colon
[3] = test system: SNB-19 CNS
[4] = test system: UACC-62 melanoma
[5] = test system: MDA-MB-435
[6] = test system: HT29 colon
[7] = test system: SK-MEL-28 melanoma
[8] = test system: CCRF-CEM leukemia
[9] = test system: CAKI-1 renal
[10] = test system: A549 NSCLC
[11] = test system: KM12 colon
[12] = test system: UO-31 renal
[13] = test system: HS 578T breast
[14] = test system: IGROV1 ovarian
[15] = test system: MCF7 breast
[16] = test system: RPMI-8226 leukemia
[17] = test system: TK-10 renal
[18] = test system: COLO 205 colon
[19] = test system: HOP-62 NSCLC
[20] = test system: HCT-116 colon
[21] = test system: SK-OV-3 ovarian
[22] = test system: OVCAR-4 ovarian
[23] = test system: SR leukemia
[24] = test system: A498 renal
[25] = test system: OVCAR-3 ovarian
[26] = test system: SF-539 CNS
[27] = test system: HOP-92 NSCLC
[28] = test system: NCI-H460 lung
[29] = test system: SF-295 CNS
[30] = test system: SN12C renal
[31] = test system: MALME-3M melanoma
[32] = test system: SF-268 CNS
[33] = test system: T-47D breast
[34] = test system: HL-60(TB) leukemia
[35] = test system: SK-MEL-5 melanoma
[36] = test system: OVCAR-5 ovarian
[37] = test system: BT-549 breast
[38] = test system: LOX IMVI melanoma
[39] = test system: K-562 leukemia
[40] = test system: M14 melanoma
[41] = test system: HCC-2998 colon
[42] = test system: SK-MEL-2 melanoma
[43] = test system: SNB-75 CNS
[44] = test system: NCI-H522 lung
[45] = test system: HCT-15 colon
[46] = test system: 786-0 renal
[47] = test system: NCI-H23 lung
[48] = test system: ACHN renal
[49] = test system: MOLT-4 leukemia
[50] = test system: EKVX NSCLC
[51] = test system: DU-145 prostate
[52] = test system: UACC-257 melanoma
[53] = test system: RXF 393 renal
[54] = test system: PC-3 prostate
[55] = test system: U251 CNS
[56] = test system: OVCAR-8 ovarian
[57] = test system: NCI/ADR-RES ovarian

Cn1c(=O)c(F)c(Nc2ccc(I)cc2F)c2c(=O)n(C[C@@H](O)CO)cnc21
GI50 [1]: 44.2 nM and 45.6 nM | TGI [1]: 8980 nM and > 1990 nM | GI50 [2]: < 10 nM and 5.21 nM | TGI [2]: > 64100 nM | GI50 [3]: 4730 nM | TGI [3]: > 100000 nM | GI50 [4]: < 10 nM and 2.64 nM | GI50 [5]: < 10 nM and 6.42 nM | TGI [5]: 41100 nM | GI50 [6]: < 10 nM and 2.9 nM | TGI [6]: 19500 nM and > 3460 nM | GI50 [7]: < 10 nM and 3.01 nM | TGI [8]: 52000 nM and > 7180 nM | GI50 [9]: 649 nM and 139 nM | TGI [9]: > 90000 nM | GI50 [10]: 234 nM and 110 nM | TGI [10]: 58700 nM and > 4080 nM | GI50 [11]: 23.7 nM and 31.9 nM | TGI [11]: 39100 nM and > 4110 nM | GI50 [12]: 304 nM and 56.8 nM | TGI [12]: 15400 nM and > 4090 nM | GI50 [13]: 5170 nM and 1210 nM | TGI [13]: 54600 nM and > 3970 nM | GI50 [14]: 106 nM and 17.9 nM | TGI [14]: 20800 nM | GI50 [15]: 21000 nM | TGI [15]: 75000 nM and > 4050 nM | GI50 [16]: 9120 nM | TGI [16]: > 91800 nM | TGI [17]: 26400 nM | GI50 [18]: < 10 nM and 2.71 nM | GI50 [19]: 54.5 nM and 15.1 nM | TGI [19]: > 69700 nM | GI50 [20]: < 10 nM and 8.32 nM | TGI [20]: 11500 nM | GI50 [21]: 15100 nM | TGI [21]: > 68800 nM | GI50 [22]: 6330 nM and 1210 nM | TGI [22]: > 100000 nM | GI50 [23]: 5040 nM | TGI [23]: 36400 nM and > 10000 nM | GI50 [24]: < 10 nM and 10.3 nM | TGI [24]: 30.5 nM and 75.2 nM | GI50 [25]: 13600 nM | TGI [25]: 40400 nM and > 3850 nM | GI50 [26]: 3210 nM and 907 nM | TGI [26]: 22800 nM and > 4070 nM | GI50 [27]: < 10 nM | TGI [27]: 87 nM and 179 nM | TGI [28]: > 100000 nM | GI50 [29]: 14100 nM and > 2110 nM | TGI [29]: > 78300 nM | GI50 [30]: 3910 nM and 487 nM | TGI [30]: > 100000 nM | GI50 [31]: < 10 nM and 1.77 nM | TGI [31]: < 10 nM | GI50 [32]: 10400 nM | TGI [32]: > 82500 nM | GI50 [33]: 18200 nM | TGI [33]: > 96500 nM | GI50 [34]: < 10 nM and 1.41 nM | TGI [34]: 23100 nM | GI50 [35]: < 26.8 nM and 44.8 nM | TGI [35]: 17900 nM and > 3460 nM | GI50 [36]: < 10 nM and 5.8 nM | TGI [36]: 35300 nM and > 1970 nM | GI50 [37]: 12600 nM | TGI [37]: > 95800 nM | GI50 [38]: 46.9 nM and 19.8 nM | TGI [38]: 12500 nM and > 3380 nM | GI50 [39]: 172 nM and 112 nM | TGI [39]: > 84000 nM | GI50 [40]: < 10 nM and 1.75 nM | TGI [40]: 21.1 nM | GI50 [41]: < 10 nM and 2.8 nM | TGI [41]: 96.9 nM and 570 nM | GI50 [42]: < 10 nM and 2.95 nM | TGI [42]: < 25.2 nM and 27.7 nM | GI50 [43]: 4110 nM | TGI [43]: 30800 nM and > 2290 nM | TGI [44]: > 100000 nM | GI50 [45]: 1900 nM and 873 nM | TGI [45]: 43200 nM and > 8260 nM | GI50 [46]: 4590 nM and 1300 nM | TGI [46]: 21400 nM and > 4580 nM | GI50 [47]: 18.3 nM and 23.1 nM | TGI [47]: > 46400 nM | GI50 [48]: 2170 nM and 480 nM | TGI [48]: 40800 nM and > 6490 nM | GI50 [49]: 18400 nM | TGI [49]: 45100 nM and > 4740 nM | GI50 [50]: 42 nM and 48.5 nM | TGI [50]: > 64100 nM | TGI [51]: > 100000 nM | GI50 [52]: < 10 nM and 3.01 nM | TGI [52]: < 10 nM and 26.2 nM | GI50 [53]: 160 nM and 162 nM | TGI [53]: 4000 nM and > 2930 nM | GI50 [54]: 16400 nM | TGI [54]: 71500 nM and > 4120 nM | GI50 [55]: 741 nM and 246 nM | TGI [55]: > 49900 nM | GI50 [56]: 7910 nM | TGI [56]: > 100000 nM | GI50 [57]: 12700 nM and > 2460 nM | TGI [57]: > 100000 nM
